BindingDB's records for doi:10.1021/acs.jmedchem.9b02101 (Kyorin Pharmaceutical, 2020)

What was measured:
[1] = Agonist activity at FPR2 in human HL-60 cells assessed as reduction in chemoattractant induced chemotaxis by luminescence cell viability assay
[2] = Agonist activity at FPR2 in mouse peritoneal macrophages assessed as stimulation of phagocytosis preincubated for 15 mins followed by FITC labeled zymosan addition and measured after 45 mins by Trypan blue staining based fluorescence assay

- EC50 [2]: < 1 nM
SMILES: COc1cc(F)c([C@@H]2CNC(=O)[C@H]2NC(=O)Nc2ccccc2)c(F)c1
- IC50 [1]: 57 nM
